In the test the target is T1, human LPA1 (Homo sapiens, UniProt Q92633).
T1 construct: the full-length cDNA for human LPA1 was obtained by PCR of the reverse transcription reaction; expressed in transfected cells
Nature of the test: LPA1 calcium flux assay. The format is cell-based. The conditions noted are these: human LPA1 expressing CHO cells, stimulated with 10 nM LPA; read-out: HLPA1 Ca Flux IC50. As to the method:
Establishment of a CHO Cell Line Stably Expressing Human LPA1
A 1.1 kb cDNA encoding the human LPA1 receptor was cloned from human lung.
Human lung RNA (Clontech Laboratories, Inc. USA) was reverse transcribed using the RETROscript kit (Ambion, Inc.) and the full-length cDNA for human LPA1 was obtained by PCR of the reverse transcription reaction. The nucleotide sequence of the cloned human LPA1 was determined by sequencing and confirmed to be identical to the published human LPA1 sequence (An et al. Biochem. Biophys. Res. Commun. 231:619 (1997). The cDNA was cloned into the pcDNA5/FRT expression plasmid and transfected in CHO cells using lipofectamine 2000 (Invitrogen Corp., USA). Clones stably expressing human LPA1 were selected using hygromycin and identified as cells that show Ca-influx in response to LPA.
LPA1 and LPA3 Calcium Flux Assays
Human LPA1 or LPA3 expressing CHO cells are seeded at 20,000-45,000 cells per well in a 96-well poly-D-lysine coated plate one or two days before the assay. Prior to the assay, the cells are washed once with PBS and then cultured in serum-free media overnight. On the day of the assay, a calcium indicator dye (Calcium 4, Molecular Devices) in assay buffer (HBSS with Ca^2+ and Mg^2+ and containing 20 mM Hepes and 0.3% fatty-acid free human serum albumin) is added to each well and incubation continued for 1 hour at 37° C. 10 μl of test compounds in 2.5% DMSO are added to the cells and incubation continued at room temperature for 30 minutes. Cells are the stimulated by the addition of 10 nM LPA and intracellular Ca^2+ measured using the Flexstation 3 (Molecular Devices). IC50s are determined using Graphpad prism analysis of drug titration curves.

T1 sequence (Q92633 whole entry): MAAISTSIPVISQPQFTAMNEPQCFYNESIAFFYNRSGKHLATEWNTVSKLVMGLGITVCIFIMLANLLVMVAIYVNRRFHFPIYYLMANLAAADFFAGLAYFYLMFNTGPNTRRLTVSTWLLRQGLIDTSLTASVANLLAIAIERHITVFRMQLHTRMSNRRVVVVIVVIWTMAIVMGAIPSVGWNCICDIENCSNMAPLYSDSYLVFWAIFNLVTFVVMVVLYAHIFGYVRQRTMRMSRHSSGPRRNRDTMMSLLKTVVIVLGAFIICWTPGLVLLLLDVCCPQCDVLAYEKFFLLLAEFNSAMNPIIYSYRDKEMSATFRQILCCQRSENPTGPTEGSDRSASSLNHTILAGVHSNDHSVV

Consider `Cc1noc(-c2ccc(-c3ccc(CC(=O)O)cc3)cc2)c1C(O)c1cn(Cc2cccc(C(F)(F)F)c2)nn1` (stereo not shown) [Compound 1-51, [4′-(4-{Hydroxy-[1-(3-trifluoromethyl-benzyl)-1H-[1,2,3]triazol-4-yl]-methyl}-3-methyl-isoxazol-5-yl)-biphenyl-4-yl]acetic acid], for which the IC50 was greater than 50000 nM.
Turning to `Cc1noc(-c2ccc(-c3ccc(CCC(=O)O)cc3)cc2)c1C(O)c1cn(Cc2cccc(C(F)(F)F)c2)nn1` (stereo not shown) [Compound 1-52, 3-[4′-(4-{Hydroxy-[1-(3-trifluoromethyl-benzyl)-1H-[1,2,3]triazol-4-yl]-methyl}-3-methyl-isoxazol-5-yl)-biphenyl-4-yl]propionic acid], the IC50 lay within 1000 to 50000 nM.
The figure for `Cc1noc(-c2ccc(-c3ccc(C4(C(=O)O)CC4)cc3)cc2)c1C(O)c1cccc(-c2ccccc2)c1` (stereo not shown) [Compound 1-53, 1-{4′-[4-(Biphenyl-3-yl-hydroxy-methyl)-3-methyl-isoxazol-5-yl]-biphenyl-4-yl}-cyclopropanecarboxylic acid] is less than 300 nM.
As to `Cc1noc(-c2ccc(-c3ccc(C4(C(=O)O)CC4)cc3)cc2)c1C(O)c1ccc(OCc2ccccc2)cc1` (stereo not shown) [Compound 1-54, 1-(4′-{4-[(4-Benzyloxy-phenyl)-hydroxy-methyl]-3-methyl-isoxazol-5-yl}-biphenyl-4-yl)-cyclopropanecarboxylic acid], the IC50 fell in the range of 1000 to 50000 nM.
In the case of `Cc1noc(-c2ccc(-c3ccc(C4(C(=O)O)CC4)cc3)cc2)c1C(O)c1cn(C(C)c2ccccc2)nn1` (stereo not shown) [Compound 1-55, 1-[4′-(4-{Hydroxy-[1-(1-phenyl-ethyl)-1H-[1,2,3]triazol-4-yl]-methyl}-3-methyl-isoxazol-5-yl)-biphenyl-4-yl]-cyclopropanecarboxylic acid], the IC50 is less than 300 nM.
The figure for `Cc1noc(-c2ccc(-c3ccc(C4(C(=O)O)CC4)cc3)cc2)c1C(O)c1cn(Cc2ccccc2C(F)(F)F)nn1` (stereo not shown) [Compound 1-56, 1-[4′-(4-{Hydroxy-[1-(2-trifluoromethyl-benzyl)-1H-[1,2,3]triazol-4-yl]-methyl}-3-methyl-isoxazol-5-yl)-biphenyl-4-yl]-cyclopropanecarboxylic acid] is 1000 to 50000 nM; for `Cc1noc(-c2ccc(-c3ccc(C4(C(=O)O)CC4)cc3)cc2)c1C(O)c1cn(Cc2cccc(Cl)c2)nn1` (stereo not shown) [Compound 1-57, 1-[4′-(4-{[1-(3-Chloro-benzyl)-1H-[1,2,3]triazol-4-yl]-hydroxy-methyl}-3-methyl-isoxazol-5-yl)-biphenyl-4-yl]-cyclopropanecarboxylic acid] it is less than 300 nM.
The figure for `Cc1noc(-c2ccc(-c3ccc(C4(C(=O)O)CC4)cc3)cc2)c1C(O)c1cccc(Cc2ccccc2)c1` (stereo not shown) [Compound 1-58, 1-(4′-{4-[(3-Benzyl-phenyl)-hydroxy-methyl]-3-methyl-isoxazol-5-yl}-biphenyl-4-yl)-cyclopropanecarboxylic acid] is less than 300 nM; for `Cc1noc(-c2ccc(-c3ccc(C4(C(=O)O)CC4)cc3)cc2)c1C(O)c1cncc(Cc2ccccc2)c1` (stereo not shown) [Compound 1-59, 1-(4′-{4-[(5-Benzyl-pyridin-3-yl)-hydroxy-methyl]-3-methyl-isoxazol-5-yl}-biphenyl-4-yl)-cyclopropanecarboxylic acid] it is less than 300 nM; for `Cc1noc(-c2ccc(-c3ccc(C4(CC(=O)O)CC4)cc3)cc2)c1C(O)c1nnc(Cc2ccccc2)o1` (stereo not shown) [Compound 1-60, [1-(4′-{4-[(5-Benzyl-[1,3,4]oxadiazol-2-yl)-hydroxy-methyl]-3-methyl-isoxazol-5-yl}-biphenyl-4-yl)-cyclopropyl]-acetic acid] it is less than 300 nM.
Under `Cc1noc(-c2ccc(-c3ccc(C4(C(=O)O)CC4)cc3)cc2)c1C(O)c1cn(Cc2ccccc2Cl)nn1` (stereo not shown) [Compound 1-61, 1-[4′-(4-{[1-(2-Chloro-benzyl)-1H-[1,2,3]triazol-4-yl]-hydroxy-methyl}-3-methyl-isoxazol-5-yl)-biphenyl-4-yl]-cyclopropanecarboxylic acid] stands less than 300 nM; under `Cc1noc(-c2ccc(-c3ccc(C4(C(=O)O)CC4)cc3)cc2)c1C(O)c1cn(Cc2ccc(Cl)cc2)nn1` (stereo not shown) [Compound 1-62, 1-[4′-(4-{[1-(4-Chloro-benzyl)-1H-[1,2,3]triazol-4-yl]-hydroxy-methyl}-3-methyl-isoxazol-5-yl)-biphenyl-4-yl]-cyclopropanecarboxylic acid], less than 300 nM; under `Cc1noc(-c2ccc(-c3ccc(C4(C(=O)O)CC4)cc3)cc2)c1[C@@H](O)c1cn(Cc2ccccc2Cl)nn1` [Compound 1-63, 1-[4′-(4-{(R)-[1-(2-Chloro-benzyl)-1H-[1,2,3]triazol-4-yl]-hydroxy-methyl}-3-methyl-isoxazol-5-yl)-biphenyl-4-yl]-cyclopropanecarboxylic acid], less than 300 nM.
Turning to `Cc1noc(-c2ccc(-c3ccc(C4(C(=O)O)CC4)cc3)cc2)c1C(O)c1cn(Cc2ccc(Cl)c(Cl)c2)nn1` (stereo not shown) [Compound 1-64, 1-[4′-(4-{[1-(3,4-Dichloro-benzyl)-1H-[1,2,3]triazol-4-yl]-hydroxy-methyl}-3-methyl-isoxazol-5-yl)-biphenyl-4-yl]-cyclopropanecarboxylic acid], the IC50 was less than 300 nM.
The figure for `Cc1noc(-c2ccc(-c3ccc(CC(=O)O)cc3)cc2)c1C(O)c1cn(Cc2ccc(Cl)c(Cl)c2)nn1` (stereo not shown) [Compound 1-65, [4′-(4-{[1-(3,4-Dichloro-benzyl)-1H-[1,2,3]triazol-4-yl]-hydroxy-methyl}-3-methyl-isoxazol-5-yl)-biphenyl-4-yl]-acetic acid] is 1000 to 50000 nM.
The figure for `Cc1noc(-c2ccc(-c3ccc(C4(C(=O)O)CC4)cc3)cc2)c1[C@@H](O)c1cn([C@H](C)c2ccccc2)nn1` [Compound 1-67, 1-[4′-(4-{(R)-Hydroxy-[1-((R)-1-phenyl-ethyl)-1H-[1,2,3]triazol-4-yl]-methyl}-3-methyl-isoxazol-5-yl)-biphenyl-4-yl]-cyclopropanecarboxylic acid] is less than 300 nM; for `Cc1noc(-c2ccc(-c3ccc(C4(C(=O)O)CC4)cc3)cc2)c1Nc1cccc(-c2ccccc2)n1` [Compound 1-68, 1-{4′-[3-Methyl-4-(6-phenyl-pyridin-2-ylamino)-isoxazol-5-yl]-biphenyl-4-yl}-cyclopropanecarboxylic acid] it is less than 300 nM.
On to `Cc1noc(-c2ccc(-c3ccc(C4(C(=O)O)CC4)cc3)cc2)c1C(O)c1cccc(Cc2ccccc2)n1` (stereo not shown) [Compound 1-69, 1-(4′-{4-[(6-Benzyl-pyridin-2-yl)-hydroxy-methyl]-3-methyl-isoxazol-5-yl}-biphenyl-4-yl)-cyclopropanecarboxylic acid], for which the IC50 was less than 300 nM.
Under `Cc1ccccc1Cn1cc(C(O)c2c(C)noc2-c2ccc(-c3ccc(C4(C(=O)O)CC4)cc3)cc2)nn1` (stereo not shown) [Compound 1-70, 1-[4′-(4-{Hydroxy-[1-(2-methyl-benzyl)-1H-[1,2,3]triazol-4-yl]-methyl}-3-methyl-isoxazol-5-yl)-biphenyl-4-yl]-cyclopropanecarboxylic acid] stands less than 300 nM; under `Cc1noc(-c2ccc(-c3ccc(C4(C(=O)O)CC4)cc3)cc2)c1C(O)c1cn(Cc2c(F)cccc2Cl)nn1` (stereo not shown) [Compound 1-71, 1-[4′-(4-{[1-(2-Chloro-6-fluoro-benzyl)-1H-[1,2,3]triazol-4-yl]-hydroxy-methyl}-3-methyl-isoxazol-5-yl)-biphenyl-4-yl]-cyclopropanecarboxylic acid], less than 300 nM; under `Cc1noc(-c2ccc(-c3ccc(C4(C(=O)O)CC4)cc3)cc2)c1C(O)c1cn(Cc2c(Cl)cccc2Cl)nn1` (stereo not shown) [Compound 1-72, 1-[4′-(4-{[1-(2,6-Dichloro-benzyl)-1H-[1,2,3]triazol-4-yl]-hydroxy-methyl}-3-methyl-isoxazol-5-yl)-biphenyl-4-yl]-cyclopropanecarboxylic acid], 300 to 1000 nM.
On to `Cc1noc(-c2ccc(-c3ccc(C4(C(=O)O)CC4)cc3)cc2)c1Nc1cccc(Cc2ccccc2)n1` [Compound 1-73, 1-{4′-[4-(6-Benzyl-pyridin-2-ylamino)-3-methyl-isoxazol-5-yl]-biphenyl-4-yl}-cyclopropanecarboxylic acid], for which the IC50 is less than 300 nM.
Consider `Cc1noc(-c2ccc(-c3ccc(C4(C(=O)O)CC4)cc3)cc2)c1Nc1cccc(-c2ccccc2)c1` [Compound 1-74, 1-{4′-[4-(Biphenyl-3-ylamino)-3-methyl-isoxazol-5-yl]-biphenyl-4-yl}-cyclopropanecarboxylic acid], for which the IC50 was less than 300 nM.
Regarding `Cc1noc(-c2ccc(-c3ccc(C4(C(=O)O)CC4)cc3)cc2)c1Nc1ccc(-c2ccccc2)cc1` [Compound 1-75, 1-{4′-[4-(Biphenyl-4-ylamino)-3-methyl-isoxazol-5-yl]-biphenyl-4-yl}-cyclopropanecarboxylic acid], the IC50 lay in the range of 300 to 1000 nM.
Turning to `Cc1noc(-c2ccc(-c3ccc(CC(=O)O)cc3)cc2)c1Nc1cccc(-c2ccccc2)n1` [Compound 1-76, {4′-[3-Methyl-4-(6-phenyl-pyridin-2-ylamino)-isoxazol-5-yl]-biphenyl-4-yl}-acetic acid], the 50% inhibitory concentration (IC50) is less than 300 nM.

These data come from patent publication US8664220B2, “Polycyclic compounds as lysophosphatidic acid receptor antagonists” (Amira Pharmaceuticals, Inc., priority 2009, dated 2014).
